Columns and labels:
[1] = biological target: T1, NUAK family SNF1-like kinase 1 (Homo sapiens) (UniProt O60285); details: at 10 µM
T1 sequence (whole entry): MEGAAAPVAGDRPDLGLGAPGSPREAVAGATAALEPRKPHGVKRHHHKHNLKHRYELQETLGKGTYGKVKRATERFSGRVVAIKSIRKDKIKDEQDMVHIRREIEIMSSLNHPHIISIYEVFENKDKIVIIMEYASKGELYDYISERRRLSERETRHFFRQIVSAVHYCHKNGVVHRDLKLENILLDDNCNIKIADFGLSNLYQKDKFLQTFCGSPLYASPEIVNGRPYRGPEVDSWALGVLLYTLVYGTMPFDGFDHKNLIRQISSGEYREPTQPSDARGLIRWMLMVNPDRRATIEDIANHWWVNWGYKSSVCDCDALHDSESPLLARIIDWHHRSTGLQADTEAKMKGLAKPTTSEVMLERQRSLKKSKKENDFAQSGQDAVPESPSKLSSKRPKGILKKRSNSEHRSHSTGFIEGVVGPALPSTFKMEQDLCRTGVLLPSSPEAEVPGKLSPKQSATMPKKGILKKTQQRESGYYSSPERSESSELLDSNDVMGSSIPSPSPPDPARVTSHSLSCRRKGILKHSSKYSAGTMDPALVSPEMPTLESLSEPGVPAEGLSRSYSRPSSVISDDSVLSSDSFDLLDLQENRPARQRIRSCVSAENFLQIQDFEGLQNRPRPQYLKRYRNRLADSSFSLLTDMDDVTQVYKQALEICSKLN

[2] = biological target: T2, 5-hydroxytryptamine receptor 2C (Homo sapiens) (UniProt P28335); assay: Selectivity interaction (Panel of kinases, GPCRs, ion channels and transporters (enzymatic assay)) EUB0000266bCl HTR2C
T2 sequence (whole entry): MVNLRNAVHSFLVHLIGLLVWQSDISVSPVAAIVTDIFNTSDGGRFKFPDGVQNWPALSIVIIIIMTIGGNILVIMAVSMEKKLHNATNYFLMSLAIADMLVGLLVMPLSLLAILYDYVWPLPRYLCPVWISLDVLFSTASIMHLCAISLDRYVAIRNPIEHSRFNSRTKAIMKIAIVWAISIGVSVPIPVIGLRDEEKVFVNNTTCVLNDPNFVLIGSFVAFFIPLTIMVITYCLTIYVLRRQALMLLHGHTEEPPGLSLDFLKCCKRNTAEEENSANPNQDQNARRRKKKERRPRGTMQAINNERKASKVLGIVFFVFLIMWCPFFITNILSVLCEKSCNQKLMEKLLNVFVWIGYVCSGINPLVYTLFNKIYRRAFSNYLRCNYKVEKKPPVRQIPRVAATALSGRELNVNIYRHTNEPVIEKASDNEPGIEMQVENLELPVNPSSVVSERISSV

[3] = biological target: Ribosomal protein S6 kinase alpha-1 (Homo sapiens, UniProt Q15418); assay: Selectivity interaction (ActivX KiNativ screen (kinase selectivity in THP-1 cell lysates)) EUB0000639a RPS6KA1; format: subcellular; details: lysate, at 0.04 µM
[4] = biological target: SWI/SNF-related matrix-associated actin-dependent regulator of chromatin subfamily A member 4 (Homo sapiens) (UniProt P51532); assay: Selectivity interaction (Bromodomain panel (DSF asssay)) EUB0000270b SMARCA4
[5] = biological target: Serine/threonine-protein kinase PAK 2 (Homo sapiens) (UniProt Q13177); assay: Selectivity interaction (KinomeScan (DiscoverX)) EUB0000695a PAK2; details: at 100 nM
[6] = biological target: T3, Dual specificity mitogen-activated protein kinase kinase 4 (Homo sapiens) (UniProt P45985); details: at 10 µM
T3 sequence (whole entry): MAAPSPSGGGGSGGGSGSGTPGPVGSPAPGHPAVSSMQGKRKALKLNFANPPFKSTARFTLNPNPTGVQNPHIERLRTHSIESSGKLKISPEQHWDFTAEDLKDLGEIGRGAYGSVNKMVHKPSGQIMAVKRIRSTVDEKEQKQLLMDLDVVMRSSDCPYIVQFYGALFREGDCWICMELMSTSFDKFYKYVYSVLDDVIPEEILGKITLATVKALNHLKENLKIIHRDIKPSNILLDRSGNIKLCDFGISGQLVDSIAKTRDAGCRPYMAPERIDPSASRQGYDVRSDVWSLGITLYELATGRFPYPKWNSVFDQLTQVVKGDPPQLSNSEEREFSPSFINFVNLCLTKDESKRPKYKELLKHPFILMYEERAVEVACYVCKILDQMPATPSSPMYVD

[7] = biological target: Alpha-2B adrenergic receptor (Homo sapiens) (UniProt P18089); assay: Selectivity interaction (GPCR panel (PDSP screen)) EUB0001079a ADRA2B; details: at 10 µM
[8] = biological target: Serine/threonine-protein kinase MARK1 (Homo sapiens) (UniProt Q9P0L2); assay: Selectivity interaction (ProQinase) EUB0000171b MARK1
[9] = biological target: T4, Membrane-associated tyrosine- and threonine-specific cdc2-inhibitory kinase (Homo sapiens) (UniProt Q99640); assay: Selectivity interaction (KinomeScan (DiscoverX)) EUB0000655a PKMYT1; details: at 10 µM
T4 sequence (whole entry): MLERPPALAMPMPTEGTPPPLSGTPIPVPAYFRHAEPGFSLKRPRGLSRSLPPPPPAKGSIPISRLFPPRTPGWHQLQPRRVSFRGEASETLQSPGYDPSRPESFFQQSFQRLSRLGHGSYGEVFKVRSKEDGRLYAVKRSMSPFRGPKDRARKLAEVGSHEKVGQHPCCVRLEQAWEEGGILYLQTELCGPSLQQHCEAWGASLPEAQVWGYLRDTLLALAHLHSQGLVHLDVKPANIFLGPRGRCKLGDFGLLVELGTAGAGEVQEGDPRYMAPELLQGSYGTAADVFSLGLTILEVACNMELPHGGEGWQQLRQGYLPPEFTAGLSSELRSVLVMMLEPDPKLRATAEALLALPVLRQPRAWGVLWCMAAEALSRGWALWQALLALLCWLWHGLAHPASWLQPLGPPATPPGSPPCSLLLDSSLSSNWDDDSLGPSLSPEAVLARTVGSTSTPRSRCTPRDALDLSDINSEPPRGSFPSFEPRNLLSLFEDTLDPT

[10] = biological target: Cyclin-dependent kinase 13 (Homo sapiens, UniProt Q14004); assay: Selectivity interaction (KinomeScan (DiscoverX)) EUB0000655a CDK13; details: at 10 µM
[11] = biological target: Mitogen-activated protein kinase 11 (Homo sapiens) (UniProt Q15759); assay: Selectivity interaction (KinomeScan (DiscoverX)) EUB0001619a MAPK11; details: at 1 µM
[12] = biological target: Cyclin-dependent kinase 2 (Homo sapiens, UniProt P24941); assay: Selectivity interaction (ActivX KiNativ screen (ex vivo kinase selectivity in human PBMCs)) EUB0001619a CDK2; format: cell-based; details: PBMC, at 1 µM
[13] = biological target: Cyclin-dependent kinase 16 (Homo sapiens) (UniProt Q00536); assay: Selectivity interaction (Kinase panel (KiNativ target engagement assay in Jurkat cells)) EUB0001635a CDK16; format: cell-based; details: Selectivity number of off-targets 0.0, Selectivity number of targets 233.0, Source Knowledge https://www.sciencedirect.com/science/article/pii/S2451945619300674?via%3Dihub, at 1 µM
Cyclin-dependent kinase 16 (Homo sapiens), sequence (Q00536 whole entry): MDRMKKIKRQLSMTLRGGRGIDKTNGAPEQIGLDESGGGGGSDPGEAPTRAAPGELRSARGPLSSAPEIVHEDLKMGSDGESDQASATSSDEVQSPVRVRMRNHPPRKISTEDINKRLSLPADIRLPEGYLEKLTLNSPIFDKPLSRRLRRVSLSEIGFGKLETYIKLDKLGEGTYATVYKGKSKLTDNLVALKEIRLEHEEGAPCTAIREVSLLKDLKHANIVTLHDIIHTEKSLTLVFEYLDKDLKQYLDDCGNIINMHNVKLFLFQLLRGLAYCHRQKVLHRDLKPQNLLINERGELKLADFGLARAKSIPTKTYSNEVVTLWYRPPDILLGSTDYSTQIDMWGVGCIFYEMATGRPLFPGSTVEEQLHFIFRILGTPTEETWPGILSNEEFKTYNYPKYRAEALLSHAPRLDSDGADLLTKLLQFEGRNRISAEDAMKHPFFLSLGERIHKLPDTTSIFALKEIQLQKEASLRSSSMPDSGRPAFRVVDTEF

Serine/threonine-protein kinase MARK1 (Homo sapiens), sequence (Q9P0L2 whole entry, looked up): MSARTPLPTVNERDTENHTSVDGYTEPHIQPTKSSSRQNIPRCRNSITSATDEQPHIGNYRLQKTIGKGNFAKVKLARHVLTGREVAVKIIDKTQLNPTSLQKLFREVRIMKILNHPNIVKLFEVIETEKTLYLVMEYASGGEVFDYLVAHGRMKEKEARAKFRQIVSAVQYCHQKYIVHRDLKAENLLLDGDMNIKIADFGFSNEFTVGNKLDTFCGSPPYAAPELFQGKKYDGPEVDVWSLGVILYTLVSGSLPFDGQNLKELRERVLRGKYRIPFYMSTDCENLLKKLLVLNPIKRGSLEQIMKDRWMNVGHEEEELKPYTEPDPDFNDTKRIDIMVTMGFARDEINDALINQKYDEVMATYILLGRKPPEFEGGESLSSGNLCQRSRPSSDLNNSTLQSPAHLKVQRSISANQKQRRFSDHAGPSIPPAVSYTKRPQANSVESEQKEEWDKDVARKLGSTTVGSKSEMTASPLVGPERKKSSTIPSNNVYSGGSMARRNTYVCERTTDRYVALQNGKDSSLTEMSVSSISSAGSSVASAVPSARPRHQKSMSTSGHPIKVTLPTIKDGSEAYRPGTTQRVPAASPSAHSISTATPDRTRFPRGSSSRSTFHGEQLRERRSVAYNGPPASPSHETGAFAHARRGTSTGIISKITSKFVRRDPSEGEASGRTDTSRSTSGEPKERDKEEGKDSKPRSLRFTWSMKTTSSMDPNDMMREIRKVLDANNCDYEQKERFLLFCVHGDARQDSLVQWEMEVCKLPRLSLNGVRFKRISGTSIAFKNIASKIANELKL
Mitogen-activated protein kinase 11 (Homo sapiens), sequence (Q15759 whole entry): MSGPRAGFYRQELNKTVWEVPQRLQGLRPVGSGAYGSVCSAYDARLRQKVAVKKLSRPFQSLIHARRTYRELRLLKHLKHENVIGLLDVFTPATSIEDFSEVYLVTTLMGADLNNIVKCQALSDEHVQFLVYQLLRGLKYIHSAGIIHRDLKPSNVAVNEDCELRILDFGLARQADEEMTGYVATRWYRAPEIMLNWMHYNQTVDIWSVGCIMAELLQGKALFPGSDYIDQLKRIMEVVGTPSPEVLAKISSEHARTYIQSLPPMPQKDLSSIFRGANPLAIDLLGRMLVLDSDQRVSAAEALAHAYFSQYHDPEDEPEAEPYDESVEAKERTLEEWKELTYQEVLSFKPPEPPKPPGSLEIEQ
Alpha-2B adrenergic receptor (Homo sapiens), sequence (P18089 whole entry): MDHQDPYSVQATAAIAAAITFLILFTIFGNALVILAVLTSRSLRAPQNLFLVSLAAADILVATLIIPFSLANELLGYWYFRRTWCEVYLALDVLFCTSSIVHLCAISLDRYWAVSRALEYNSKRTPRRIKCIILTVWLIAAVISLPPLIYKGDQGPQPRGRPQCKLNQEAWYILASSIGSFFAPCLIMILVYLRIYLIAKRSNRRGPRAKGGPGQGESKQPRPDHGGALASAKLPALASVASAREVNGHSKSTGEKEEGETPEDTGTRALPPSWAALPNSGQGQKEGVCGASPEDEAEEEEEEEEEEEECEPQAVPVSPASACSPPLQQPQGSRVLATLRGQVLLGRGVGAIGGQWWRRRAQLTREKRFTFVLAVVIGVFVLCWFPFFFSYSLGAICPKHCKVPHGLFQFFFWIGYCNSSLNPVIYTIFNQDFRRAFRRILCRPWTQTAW
SWI/SNF-related matrix-associated actin-dependent regulator of chromatin subfamily A member 4 (Homo sapiens), sequence (P51532 whole entry): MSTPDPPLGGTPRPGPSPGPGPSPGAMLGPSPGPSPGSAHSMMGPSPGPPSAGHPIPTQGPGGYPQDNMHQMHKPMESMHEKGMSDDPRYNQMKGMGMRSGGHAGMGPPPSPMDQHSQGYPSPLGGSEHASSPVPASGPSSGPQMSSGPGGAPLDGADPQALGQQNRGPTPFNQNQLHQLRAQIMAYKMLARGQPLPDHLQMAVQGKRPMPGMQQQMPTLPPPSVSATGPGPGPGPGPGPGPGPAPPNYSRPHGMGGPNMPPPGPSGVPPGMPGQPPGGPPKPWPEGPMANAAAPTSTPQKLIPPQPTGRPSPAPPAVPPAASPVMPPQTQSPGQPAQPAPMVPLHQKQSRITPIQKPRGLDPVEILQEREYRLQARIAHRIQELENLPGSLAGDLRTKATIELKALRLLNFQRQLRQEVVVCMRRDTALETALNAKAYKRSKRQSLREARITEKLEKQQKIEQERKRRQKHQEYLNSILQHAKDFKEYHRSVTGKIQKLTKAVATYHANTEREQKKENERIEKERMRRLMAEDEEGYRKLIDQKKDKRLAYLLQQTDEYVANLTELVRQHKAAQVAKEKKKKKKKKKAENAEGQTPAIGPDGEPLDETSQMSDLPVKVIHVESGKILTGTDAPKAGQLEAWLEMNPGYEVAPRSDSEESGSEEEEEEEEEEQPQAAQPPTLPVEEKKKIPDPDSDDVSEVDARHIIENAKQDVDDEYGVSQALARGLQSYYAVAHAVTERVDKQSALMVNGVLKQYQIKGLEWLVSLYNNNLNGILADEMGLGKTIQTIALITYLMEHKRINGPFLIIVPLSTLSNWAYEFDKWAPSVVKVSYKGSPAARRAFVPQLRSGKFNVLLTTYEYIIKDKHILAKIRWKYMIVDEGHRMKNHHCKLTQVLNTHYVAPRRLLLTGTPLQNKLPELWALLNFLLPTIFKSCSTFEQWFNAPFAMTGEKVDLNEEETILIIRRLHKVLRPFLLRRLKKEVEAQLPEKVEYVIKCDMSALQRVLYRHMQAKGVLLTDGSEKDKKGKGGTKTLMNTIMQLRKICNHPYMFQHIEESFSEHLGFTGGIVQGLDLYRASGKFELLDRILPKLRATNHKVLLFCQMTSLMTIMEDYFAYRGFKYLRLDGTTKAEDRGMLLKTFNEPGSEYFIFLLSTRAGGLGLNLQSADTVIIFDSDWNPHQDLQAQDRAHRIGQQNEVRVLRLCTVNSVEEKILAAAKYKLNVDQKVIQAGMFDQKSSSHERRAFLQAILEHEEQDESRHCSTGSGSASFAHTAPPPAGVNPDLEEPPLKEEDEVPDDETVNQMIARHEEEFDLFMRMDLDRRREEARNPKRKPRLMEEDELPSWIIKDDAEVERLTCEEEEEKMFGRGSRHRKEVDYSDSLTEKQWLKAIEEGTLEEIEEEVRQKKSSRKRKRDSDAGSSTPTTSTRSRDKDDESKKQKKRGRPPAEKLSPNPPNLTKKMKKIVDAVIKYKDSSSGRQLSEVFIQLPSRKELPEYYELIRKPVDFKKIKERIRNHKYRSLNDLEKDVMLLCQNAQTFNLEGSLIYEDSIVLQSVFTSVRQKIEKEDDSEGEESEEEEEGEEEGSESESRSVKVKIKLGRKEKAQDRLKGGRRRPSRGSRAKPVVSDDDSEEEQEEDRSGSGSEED
Serine/threonine-protein kinase PAK 2 (Homo sapiens), sequence (Q13177 whole entry): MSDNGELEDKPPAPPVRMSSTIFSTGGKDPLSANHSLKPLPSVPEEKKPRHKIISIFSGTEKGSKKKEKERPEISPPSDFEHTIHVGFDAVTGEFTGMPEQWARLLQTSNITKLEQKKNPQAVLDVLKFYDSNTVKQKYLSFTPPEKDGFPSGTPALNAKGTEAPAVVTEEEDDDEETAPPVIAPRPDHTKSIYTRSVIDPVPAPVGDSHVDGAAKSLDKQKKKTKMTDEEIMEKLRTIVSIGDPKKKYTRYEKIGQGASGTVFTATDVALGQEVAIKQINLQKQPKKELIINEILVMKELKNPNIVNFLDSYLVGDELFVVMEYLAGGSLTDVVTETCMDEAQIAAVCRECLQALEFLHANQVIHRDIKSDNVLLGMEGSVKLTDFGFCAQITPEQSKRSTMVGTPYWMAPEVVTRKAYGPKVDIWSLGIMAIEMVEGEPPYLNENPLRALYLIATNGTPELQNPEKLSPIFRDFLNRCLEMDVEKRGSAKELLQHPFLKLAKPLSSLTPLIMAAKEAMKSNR
Ribosomal protein S6 kinase alpha-1, sequence (Q15418 whole entry): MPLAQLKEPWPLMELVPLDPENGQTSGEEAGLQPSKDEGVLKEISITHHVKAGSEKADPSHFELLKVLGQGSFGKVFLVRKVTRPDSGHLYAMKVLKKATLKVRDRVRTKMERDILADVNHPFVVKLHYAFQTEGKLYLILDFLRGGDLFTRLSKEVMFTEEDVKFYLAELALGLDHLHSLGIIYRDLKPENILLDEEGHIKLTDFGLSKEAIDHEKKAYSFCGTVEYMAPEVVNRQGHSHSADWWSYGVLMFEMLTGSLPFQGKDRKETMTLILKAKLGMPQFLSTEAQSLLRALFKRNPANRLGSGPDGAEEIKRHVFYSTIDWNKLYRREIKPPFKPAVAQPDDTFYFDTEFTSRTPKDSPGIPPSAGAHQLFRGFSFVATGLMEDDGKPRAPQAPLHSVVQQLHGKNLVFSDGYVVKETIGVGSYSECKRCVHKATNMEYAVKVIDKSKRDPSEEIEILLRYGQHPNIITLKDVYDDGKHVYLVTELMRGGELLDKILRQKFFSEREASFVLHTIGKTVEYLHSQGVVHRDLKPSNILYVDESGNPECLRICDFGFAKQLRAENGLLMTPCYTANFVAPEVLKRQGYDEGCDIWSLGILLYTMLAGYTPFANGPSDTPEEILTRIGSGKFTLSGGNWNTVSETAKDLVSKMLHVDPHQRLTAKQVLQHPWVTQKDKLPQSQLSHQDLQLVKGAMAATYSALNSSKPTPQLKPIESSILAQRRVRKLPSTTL

In the case of Cc1cc([C@@H](C)Nc2ccccc2C(=O)O)c2nc(N3CCOCC3)cc(=O)n2c1 [AZD-6482], the % of control [1] is reported as 100%.
Molecule CCn1c(-c2nc3cc(C(=O)N4CCCC(N)C4)ccc3n2C)cc2ccccc21 (centres undefined) has a pXC50 [2] of under 4.4 M.
Molecule CC[C@@H]1[C@H](F)C(=O)N[C@@H]1COc1nccc2cc(C(N)=O)c(OC)cc12 [ZIMLOVISERTIB] has a % of inhibition [3] of 6.3%.
Cc1cc(CN)cc(C)c1-c1ncn(C)c1-c1cncn1C gave a dTM [4] of -1.35 K.
In the case of Cc1cc(F)c(C(=O)Nc2cccc(-c3nncn3C(C)C)n2)cc1-n1cnc(C2CC2)c1, the % of control [5] is reported as 100%.
CCN(CC)CCCCNc1ncc2cc(-c3cc(OC)cc(OC)c3)c(NC(=O)NC(C)(C)C)nc2n1 was tested, and the % of control [6] was 100%.
Nc1cnc(N2CCc3cc(S(=O)(=O)Nc4c(F)cc(Cl)cc4F)cc(N4CCCC4=O)c32)nc1 [TP-020n] gave a % of inhibition [7] of 0.99%.
In the case of C=CC(=O)Nc1cccc(C(=O)Nc2ccc(Nc3cc(-c4[nH]c(SC)nc4C)ccn3)cc2)c1, the % of control ([8]; at 1 µM) is reported as 100% and the % of control ([8]; at 5 µM) is reported as 88%.
CN(C)CCOc1ccc(-c2nc(-c3ccncc3)c(-c3ccc4c(c3)CC/C4=N\O)[nH]2)cc1 gave a % of control [9] of 100% and a % of control [10] of 100%.
N#Cc1cccc(-c2c[nH]c3ncnc(N4CCOCC4)c23)c1 showed a % of control [11] of 100% and a % of inhibition [12] of 9%.
For C=CC(=O)Nc1ccc(C(=O)Nc2[nH]nc3c2CN(C(=O)N[C@H](CN(C)C)c2ccccc2)C3(C)C)cc1, the % of engagement [13] was 3.1%.
